The values below come from US7674787B2, “Conformationally constrained Smac mimetics and the uses thereof” (The Regents of the University of Michigan, priority 2004, dated 2010).

Broadly, the IC50 is the concentration at which inhibition is half-maximal. The low end stands for higher potency, the high end for lower potency. The Ki is a measure of affinity in units of concentration, obtained from inhibition or displacement. A lower Ki goes with a stronger hold on the target. The term Kd denotes a measure of binding affinity in units of concentration.

One test deals with PC-3 cells. As to the kind of experiment: Apoptosis by Annexin V-FITC staining in PC-3 cells. Format: cell-based, human. From the text: SH-97, a peptido-mimetic in which the side chain of alanine has been replaced with an ethyl group and the isoleucine has been replaced with a diphenylmethyl group, was used to test the basic premise. Of note, SH-97 still has two natural amino acids (valine and proline) and one natural peptide bond. […] The experiment used PC-3 cells which express high levels of XIAP and cIAP-1/2 proteins and cisplatin (CDDP) as the chemotherapeutic drug. CDDP is a DNA damaging agent and can effectively induce apoptosis in PC-3 cells and is also a clinically used chemotherapeutic drug for prostate cancer.
PC-3 cells were treated with CDDP, Smac peptides and mimetics alone or in combination for 42 hours and apoptosis was analyzed by Annexin V-FITC staining. […] Combination of 25 μM CDDP and 10 μM or 25 μM SH-97 induced 29.3%±1.9% and 35.8%±0.4% apoptosis over control cells, respectively (FIG. 18A).
Similar experiments were performed with SH-102 (Table 5). PC-3 cells in 6-well plates were treated with SH-102 and CDDP, alone or in combination, for 42 hours. Cells were collected and stained with Annexin V-FITC and propidium iodide. The fluorescence of Annexin V-FITC and propidium iodide of individual cells was analyzed by flow cytometry. […] Combination of 25 μM CDDP and 10 μM SH-102 induced 32% apoptosis over control cells (FIG. 19).
The same experiment was performed using TAXOTERE (docetaxel), another cancer chemotherapeutic drug. PC-3 cells in 6-well plates were treated with SH-102 and TAXOTERE, alone or in combination, for 42 hours. Cells were collected and stained with Annexin V-FITC and propidium iodide. The fluorescence of Annexin V-FITC and propidium iodide of individual cells was analyzed by flow cytometry. […] Combination of 10 μM TAXOTERE and 10 μM SH-102 induced about 18% apoptosis over control cells (FIG. 21).

A further test concerns MDA-231 cells. As to the kind of experiment: Apoptosis by Annexin V-FITC/propidium iodide in MDA-231 cells. Format: cell-based, human. How it is done:
Similar experiments were performed using the breast cancer cell line MDA-231. MDA-231 cells in 6-well plates were treated with SH-102 and CDDP, alone or in combination, for 42 hours. Cells were collected and stained with Annexin V-FITC and propidium iodide. The fluorescence of Annexin V-FITC and propidium iodide of individual cells was analyzed by flow cytometry. 25 μM and 50 μM CDDP induced about 25% and 42% of MDA-231 cells to undergo apoptosis as compared to control cells, respectively (FIG. 22). […] Combination of 25 and 50 μM CDDP and 10 μM SH-102 induced about 35% and 75% apoptosis over control cells, respectively (FIG. 22).

In test [1] the test system is MDA-435, MDA-468, and T47D cells. Description: Cell growth inhibition, WST-8, breast cancer cell lines. Format: cell-based, human. The note with it: Homo sapiens, 120 h, 5 days, each of the three cell lines. How it is done: To test the effect of Smac mimetics by themselves in inhibition of cell growth in human cancer cells, SH-102 was administered to three different breast cancer cell lines. MDA-435, MDA-468, and T47D cells were seeded in 96-well plates with increasing concentrations of SH-102, Smac8, or Smac8-C. The cells were then incubated at 37° C. with 5% CO2 for 5 days, followed by detection of cell viability with WST-8 (10% Dojindo solution in IMEM with 10% FCS). OD values at 450 nm with reference at 650 nm were read approximately 3 hours later. Untreated cells were used as 100% growth. […]. […] (FIGS. 26A-26C).
(In general: Formazan colour is commonly taken as a measure of viable cells.)

The next test deals with Jurkat-XIAP cells. Description: Sub-G1 apoptosis in Jurkat cells overexpressing XIAP.
The test system of another test is Jurkat-Bir3 cells. As to the kind of experiment: Sub-G1 apoptosis in Jurkat cells expressing XIAP-Bir3.
In the next test the test system is Jurkat-Vec cells. As to the kind of experiment: Sub-G1 apoptosis in Jurkat cells with control vector. Format: cell-based, human. Particulars: 10 μM etoposide alone, 15 hours.
For test [2], the system named is BT-549, MDA-MB-231 (subclone 2LMP), MDA-MB-231 (ATCC) and PC-3 cells. Description: Cell growth inhibition, WST-8, cancer cell lines. Format: cell-based, human. How it is done: (§1) To test the effect of [6.3.0] Smac mimetics in inhibition of cell growth in human cancer cells, compounds were administered to several different cancer cell lines. BT-549, MDA-MB-231 (subclone 2LMP), and MDA-MB-231 (ATCC) human breast cancer cells and PC-3 human prostate cancer cells were seeded in 96-well plates with increasing concentrations of the compounds. To assay for the selectivity of the compounds for cancer cells, normal prostate epithelial cells were also tested. The cells were then incubated at 37° C. with 5% CO2 for 5 days, followed by detection of cell viability with WST-8. Untreated cells were used as 100% growth. The compounds tested were SH-109, SH-122 and SH-123 (Table 6).

The test system of test [3] is normal prostate epithelial cells. As to the kind of experiment: Cell growth inhibition, WST-8, normal cells. The class given is cell-based. Particulars: 5 days. How it is done:
as §1

Test [4] has as its system MDA-MB-231 (subclone 2LMP) breast cancer cells. As to the kind of experiment: Cell growth inhibition in combination with TRAIL, WST-8. Format: cell-based, human. Particulars: 4 days. How it is done:
To test the ability of SH-122 to enhance the cell growth inhibitory activity of TRAIL, MDA-MB-231 (subclone 2LMP) breast cancer cells were seeded in 96-well plates with various concentrations of TRAIL in the presence of increasing amounts of SH-122. The cells were then incubated at 37° C. with 5% CO2 for 4 days, followed by detection of cell viability with WST-8.

The target in the next test is XIAP BIR3 (Homo sapiens, UniProt P98170). Description: biochemical.
Sequence of XIAP BIR3 (P98170 241-356): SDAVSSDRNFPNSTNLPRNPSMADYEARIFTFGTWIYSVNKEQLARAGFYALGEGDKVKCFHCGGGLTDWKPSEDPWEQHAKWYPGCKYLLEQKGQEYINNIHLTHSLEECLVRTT
Another test deals with XIAP (Homo sapiens, UniProt P98170). The note with it: background statement; cited from earlier work.
Sequence of XIAP (P98170 whole entry): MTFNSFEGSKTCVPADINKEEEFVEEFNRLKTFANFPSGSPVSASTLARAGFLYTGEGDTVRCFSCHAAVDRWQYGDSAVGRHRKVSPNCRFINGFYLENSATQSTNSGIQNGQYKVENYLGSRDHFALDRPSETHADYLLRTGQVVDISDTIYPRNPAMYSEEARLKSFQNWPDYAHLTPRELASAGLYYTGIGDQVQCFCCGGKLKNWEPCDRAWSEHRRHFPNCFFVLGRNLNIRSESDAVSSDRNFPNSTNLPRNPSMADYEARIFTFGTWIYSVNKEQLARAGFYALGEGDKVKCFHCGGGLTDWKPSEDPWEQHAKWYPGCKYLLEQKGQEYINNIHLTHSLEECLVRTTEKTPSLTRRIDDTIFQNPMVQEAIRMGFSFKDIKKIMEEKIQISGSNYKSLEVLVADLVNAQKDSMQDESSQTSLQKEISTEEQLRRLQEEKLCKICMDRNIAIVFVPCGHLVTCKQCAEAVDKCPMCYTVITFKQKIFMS

Procedure for Jurkat-Vec cells: Data were analyzed to calculate the percentage of sub-G1 cells (apoptotic cells) using CellQuest software (Becton Dickinson).

For the molecule `CC[C@H](N)C(=O)N[C@H]1CCC[C@H]2CC[C@@H](C(=O)NC(c3ccccc3)c3ccccc3)N2C1=O` [Compound 34], the “apoptosis over control cells” value is “about 18%” with PC-3 cells (10 μM TAXOTERE + 10 μM SH-102, 42 hours); 32% with PC-3 cells (25 μM CDDP + 10 μM compound, 42 hours); “about 35%” with MDA-231 cells (25 μM CDDP + 10 μM SH-102, 42 hours); roughly 75% with MDA-231 cells (50 μM CDDP + 10 μM SH-102, 42 hours). The “apoptosis compared to untreated cancer cells” value with PC-3 cells (compound alone up to 100 μM, 42 hours) is on record as “did not induce significantly more apoptosis”. For the same molecule, in the test on MDA-231 cells (10 μM SH-102 compared with 100 μM pSmac8-C), the “ability to sensitize cells to CDDP” value is “as great as that of 100 μM pSmac8-C”. The concentration for half-maximal inhibition (IC50) in test [1] fell in the range of 30000 to 70000 nM. In the test with Jurkat-XIAP cells (10 μM SH-102 compared with 50 μM Smac8-C), the “effectiveness in overcoming protective effect of XIAP” value is reported as “at least as effective as 50 μM Smac8-C”. For the same molecule, in the test on Jurkat-XIAP cells (10 μM SH-102 in combination with etoposide, 15 hours), the “apoptosis (sub-G1)” value was “about 15%”. Moreover, the apoptosis result in the test with Jurkat-Bir3 cells (etoposide + 10 μM SH-102) was “about 25%”; in the test on Jurkat-Bir3 cells (etoposide + 20 μM SH-102), roughly 30%.

As for `COc1cc([C@@H]2c3cc4c(cc3[C@@H](O[C@@H]3O[C@@H]5CO[C@@H](C)O[C@H]5[C@H](O)[C@H]3O)[C@H]3COC(=O)[C@H]23)OCO4)cc(OC)c1O` [etoposide, reference compound], the “apoptotic cells (sub-G1)” value with Jurkat-Vec cells is “about 50%”; in the test on Jurkat-XIAP cells (10 μM etoposide alone, 15 hours) it was “about 10%”. Also, the apoptosis entry with Jurkat-Bir3 cells (20 μM etoposide alone) was “about 18%”.

As for `CC[C@H](NC)C(=O)N[C@H]1CCCC[C@H]2CC[C@@H](C(=O)NC(c3ccccc3)c3ccccc3)N2C1=O` [SH-122], the “cell growth inhibition (in words)” value in test [2] (5 days, WST-8, each of the cancer cell lines) is “inhibited the cell growth”; in test [3], “no cell growth inhibition effect”. Further, the “rank of potency in cell growth inhibition” value in test [2] (among SH-109, SH-122, SH-123, each cell line) was “most potent”. The “decrease of the IC50 of TRAIL” value in test [4] (250 nM SH-122 with TRAIL) was “approximately ten-fold”. This molecule returned a Ki on XIAP BIR3 of 30 nM.

B1: mature Smac protein: mature Smac protein, endogenous inhibitor of XIAP (protein, UniProt Q9NR28 22-239, looked up)
Diablo IAP-binding …: LCVPVVANFKKRCFSELIRPWHKTVTIGFGVTLCAVPIAQKSEPHSLSSEALMRRAVSLVTDSTSTFLSQTTYALIEAITEYTKAVYTLTSLYRQYTSLLGKMNSEEEDEVWQVIIGARAEMTSKHQEYLKLETTWMTAVGLSEMAAEAAYQTGADQASITARNHIQLVKLQVEEVHQLSRKAETKLAEAQIEELRQKTQEEGEERAESEQEAYLRED
As for B1, in the test with XIAP, the Kd is 420 nM.

B2: TRAIL: tumor necrosis factor-related apoptosis-inducing ligand (protein, UniProt P50591 1-281, looked up)
Tumor necrosis factor ligand …: MAMMEVQGGPSLGQTCVLIVIFTVLLQSLCVAVTYVYFTNELKQMQDKYSKSGIACFLKEDDSYWDPNDEESMNSPCWQVKWQLRQLVRKMILRTSEETISTVQEKQQNISPLVRERGPQRVAAHITGTRGRSNTLSSPNSKNEKALGRKINSWESSRSGHSFLSNLHLRNGELVIHEKGFYYIYSQTYFRFQEEIKENTKNDKQMVQYIYKYTSYPDPILLMKSARNSCWSKDAEYGLYSIYQGGIFELKENDRIFVSVTNEHLIDMDHEASFFGAFLVG
In the case of B2, the “cell growth inhibition (in words)” value in test [4] (TRAIL by itself) is recorded as “inhibited the growth of the cells in a dose dependent fashion”.
